How the values were obtained:
[1] = Body composition and body fat analysis after CLA, high protein diet or exercise treatment; format: in vivo, Sprague Dawley rats; conditions: rats
Excerpt: (§1) Four-week old male Sprague Dawley rats were allowed to acclimate for two weeks on a control diet comprising AIN-93M (American Institute of Nutrition purified diet formula for maintenance of mature rodents). Rats were divided into four groups of 12. Group 1 was fed the control diet supplemented with CLA (Table 1). Group 2 was fed a modified diet increased in protein and decreased in carbohydrate (Table 1). Group 3 was fed the control diet, and was given the opportunity to engage in supplemental exercise. Specifically, a running wheel was placed in the cage of each rat in group 3, and daily use of the wheel was monitored by recording each turn of the wheel using a sensor connected to a computer. Group 4 was fed the control diet (Table 1).
(§2) Measurements were taken at 7 and 60 days after initiation of the feeding or exercise protocols. At the completion of the 60-day feeding protocol, all animals were sacrificed and analyses were performed.
Body composition analyses were performed on the test animals.

[2] = Biochemical analyses of blood (fasting glucose, glucagon, insulin); format: in vivo, Sprague Dawley rats; conditions: for Fasting blood glucagon / Fasting blood glucose / Fasting blood insulin: rats
Excerpt: as §1, §2

[3] = after 60 days, compared with the control diet and the exercise treatment

Substance: conjugated linoleic acid [CLA]
- Body fat ([1]; 60 days, compared with the Control group): reduced body fat
- Retroperitoneal fat ([1]; following 60 days of treatment): 10.07 g
- Total fat pad ([1]; following 60 days of treatment): 31.80 g
- Blood glucose level [2, 3]: reduced blood glucose level
- Blood insulin [2, 3]: reduced blood insulin
- Fasting blood glucagon ([2]; Day 7): 111.65 pg/mL
- Fasting blood glucose ([2]; Day 7): 10.53 mmol/L
- Fasting blood insulin ([2]; Day 7): 233.58 pmol/L
- Fasting blood glucagon ([2]; Day 60): 120.77 pg/mL
- Fasting blood glucose ([2]; Day 60): 11.08 mmol/L
- Fasting blood insulin ([2]; Day 60): 172.66 pmol/L
